Tests used:
Assay type in all cases: physicochemical
[1] = UV-Vis absorption spectra in solvents
Procedure: (§1) The optical properties of compounds 1 to 3, 6b to 6d, 7a, and 7b were evaluated. Ultraviolet-visible (UV-Vis) absorption and fluorescence spectra were measured with an UV-Vis-NIR spectrophotometer UV-3150 (Shimadzu) and a fluorescence spectrophotometer F-4500 (Hitachi), respectively. Absolute fluorescence quantum yield was determined with an absolute PL quantum yield measurement instruments C9920-02 or C11347-01 (Hamamatsu Photonics). Sample solutions of all the samples were prepared using spectral grade solvents purchased from Nacalai Tesque, and were each measured with a 1 cm square quartz cuvette. The concentrations of each sample for the measurement of UV-Vis absorption spectra were set for ca. 10^−5 M. The concentrations of each sample for the measurement of fluorescence spectra were adjusted in a range where concentration quenching would not occur. For the measurement of absolute fluorescence quantum yield, each sample solution was deaerated by purging with an argon gas stream for several minutes prior to the measurements. The orientation polarizabilities Δf of hexane, ethyl acetate, and methanol, which are not shown in the Tables, were −0.000518, 0.201, and 0.309, respectively.

[2] = Fluorescence spectra in solvents
Procedure: as §1

[3] = Absolute fluorescence quantum yield in solvents; conditions: apparatus C11347-01
Procedure: as §1

[4] = Photobleaching resistance, 403 nm laser irradiation of acetonitrile solutions; conditions: acetonitrile solution, 403 nm laser light, 120 minutes; FIG. 2
Procedure: Solutions of compounds 1, 2 (6a), 6b, 7a, 7b, and a known fluorescent dye Alexa-430 each in acetonitrile were prepared so that their absorbances are in the range from 0.39 to 0.44. The concentration of each compound in the solution was 2.35×10^−5 M for compound 1, 2.17×10^−5 M for compound 2 (6a), 1.25×10^−5 M for compound 6b, 3.30×10^−5 M for compound 7a, and 2.04×10^−5 M for compound 7b. […] Immediately after preparation of each acetonitrile solution, the molar absorption coefficient of the acetonitrile solution was measured. Then, the molar absorption coefficient of the acetonitrile solution was measured after each of irradiations with 403 nm laser light for 20 minutes, 60 minutes, and 120 minutes, and the relative absorbance was determined relative to the molar absorption coefficient before laser light irradiation (immediately after preparation of the solution).

Structure (SMILES): O=P1(c2ccccc2)C2=C(c3ccccc31)C(c1ccccc1)(c1ccccc1)c1cc(N(c3ccccc3)c3ccccc3)ccc12 (centres unmarked) [Compound 7a]
- Absorption Maximum Wavelength λ max ([1]; CH3CN): 428 nm
- Molar Absorption Coefficient ϵ ([1]; CH3CN): 1.62 10^4M^−1 cm^−1
- Absorption Maximum Wavelength λ max ([1]; EtOH): 439 nm
- Molar Absorption Coefficient ϵ ([1]; EtOH): 1.60 10^4M^−1 cm^−1
- Absorption Maximum Wavelength λ max ([1]; cyclohexane): 424 nm
- Molar Absorption Coefficient ϵ ([1]; cyclohexane): 1.60 10^4M^−1 cm^−1
- Absorption Maximum Wavelength λ max ([1]; ethyl acetate): 424 nm
- Molar Absorption Coefficient ϵ ([1]; ethyl acetate): 1.61 10^4M^−1 cm^−1
- Emission Maximum Wavelength λ em ([2]; CH3CN): 590 nm
- Emission Maximum Wavelength λ em ([2]; EtOH): 589 nm
- Emission Maximum Wavelength λ em ([2]; cyclohexane): 482 nm
- Emission Maximum Wavelength λ em ([2]; ethyl acetate): 540 nm
- Fluorescence Quantum Yield φF ([3]; CH3CN): 0.79
- Fluorescence Quantum Yield φF ([3]; EtOH): 0.70
- Fluorescence Quantum Yield φF ([3]; cyclohexane): 0.88
- Fluorescence Quantum Yield φF ([3]; ethyl acetate): 0.90
- Resistance to photobleaching (relative absorbance) [4]: outstanding resistance to photobleaching
